Test results taken from patent publication US10421782B2, “Cyclic cationic peptides with antimicrobial activity” (I.C.F. S.R.L., priority 2012, dated 2019).
In brackets after ≈: the same amount, converted by molar mass. Several values for one entry are separate records, joined by “and”; a condition that tells them apart may be missing. Equal entries are not always repeated. Where two headings read alike, the source gives them in different places.

Key:
[1] = test system: Malassezia pachydermatis ATCC 14522; assay: Broth-microdilution test and subsequent plating on agar, fungi (yeasts); type: cell-based; settings: 2 h contact at 37° C., CFU count on agar Sabouraud
Description: (§1) The inoculum was set up by culturing Candida albicans ATCC 10231 and Malassezia pachydermatis ATCC 14522 in Czapek-Dox broth medium (DIFCO) for 48-72 h. On the assay day, the fungal culture was centrifuged at 1700×g for 15 min, the pellet was resuspended in phosphate buffer and submitted to shaking by the use of an electric vortex to disperse the fungal cell aggregates. The suspension was diluted until an optical density equal to an opacity of 0.5 on the McFarland turbidimetric scale was reached, which contains approximately 1-5×10^6 cell/ml (Branda J. A., Krantz A. Effectc of yeast on automated cell counting. Am J Clin Pathol., 2006:126, 248-254).
(§2) The peptides were tested for their ability to inhibit fungal growth. Fifty microliters of peptide at a concentration comprised between about 0.2 mM and about 50 mM were added in 96-well U-bottom plates containing phosphate buffer and one of the following fungi: Candida albicans ATCC 10231 and Malassezia pachydermatis ATCC 14522. After 2 h incubation at 37° C., fungi were transferred on the solid medium agar Sabouraud. As a control, fungal cultures were cultured in the absence of peptide.
(§3) The fungal suspension was put in contact for two hours with different concentrations of the peptide at the temperature of 37° C. After incubation, 20 μl were drawn from the wells of each dilution and seeded on the solid medium agar Sabouraud. The inoculum was evenly distributed on the agarized medium by means of a sterile disposable loop. After incubation for 24 h at the temperature of 37° C., counting of the fungal colonies (CFU) was performed.

[2] = test system: Candida albicans ATCC 10231; assay: as above; type: cell-based; settings: 2 h contact at 37° C., CFU count on agar Sabouraud
Description: as §1, §2, §3

[3] = test system: Escherichia coli ATCC 25922; type: cell-based; settings: for LD90 E. coli ATCC 25922: 2 h contact at 37° C., CFU count after 24 h
Description: (§4) For each bacterial strain, 3-5 morphologically similar colonies were drawn from fresh cultures, inoculated in Brain Hearth Infusion broth liquid medium and incubated at the temperature of 37° C. under shaking at 225 r.p.m. for 3-4 h. Subsequently, the bacterial suspension was centrifuged at 1000 g for 20 min and the thus obtained pellet was resuspended in phosphate buffer 10 mM. Turbidity was measured in a spectrophotometer with absorbance at 600 nm, equivalent in the range 0.08-0.13 to a concentration of about 10^8 CFU/ml. The bacterial suspension was diluted 1:100 in phosphate buffer 10 mM, and within 30 min 50 microliters of such bacterial suspension (10^6 CFU/ml) were inoculated in each well of the microtiter plate, to obtain a final bacterial concentration of about 5×10^5 CFU/ml.
(§5) Several peptides were tested for their ability to inhibit bacterial growth in liquid culture. Fifty microliters of peptide at a concentration comprised between about 0.2 mM and 50 mM were added in 96-well U-bottom plates containing liquid growth medium and one of the following bacteria: Escherichia coli ATCC 25922, P. aeruginosa ATCC 27853, Stenotrophomonas maltophilia ATCC 13637. After 2 hour incubation at 37° C., bacteria were transferred on a solid medium. As a growth control, bacterial cultures were cultured in the absence of peptides.
(§6) The bacterial suspension was put in contact for two hours with different concentrations of the peptide at the temperature of 37° C. After incubation, 20 μl were drawn from the wells of each dilution and seeded on solid medium, agar McConkey. The inoculum was evenly distributed on the agarized medium by means of a sterile disposable loop. After incubation for 24 h at the temperature of 37° C., counting of the bacterial colonies (CFU) was performed.

[4] = test system: Pseudomonas aeruginosa ATCC 27853; type: cell-based
Description: as §4, §5, §6

P. aeruginosa ATCC 27853 = type: cell-based, Pseudomonas aeruginosa; settings: ATCC 27853, 2 h
Description: Several peptides were tested for their ability to inhibit bacterial growth in liquid culture. Fifty microliters of peptide at a concentration between about 0.2 mM and 50 mM were added in 96-well U-bottom plates containing phosphate buffer 10 mM supplemented with 125 or 250 mM NaCl and one of the following bacteria: Escherichia coli ATCC 25922, P. aeruginosa ATCC 27853. After 2 hour incubation at 37° C., bacteria were transferred on a solid medium. As a growth control, the bacterial cultures were cultured in the absence of peptides.
The bacterial suspension was put in contact for two hours with different concentrations of the peptide at the temperature of 37° C. After incubation, 20 μl were drawn from the wells of each dilution and seeded on the solid medium agar McConkey for Gram-negative bacteria and Columbia agar supplemented with 5% bovine red blood cells for Gram-positive bacteria. The inoculum was evenly distributed on the agarized medium by means of a sterile disposable loop. After incubation for 24 h at the temperature of 37° C., counting of the colony forming units (CFU) was performed.
In table 6A, the antimicrobial activity against E. coli ATCC 25922, Pseudomonas aeruginosa ATCC 27853 in the presence of […] NaCl is reported.

E. coli ML-35pYC = assay: Membrane permeabilization assay (CENTA / ONPG kinetics); type: cell-based, Escherichia coli; settings: peptide 12.5 μg/ml, logistic 4-parameter fit, read up to 240 min
Description: The strain ML-35pYC of E. coli was used to assay the kinetics of membrane permeabilization performed by the peptides of the invention. This bacterial strain expresses resistance to ampicillin, constitutive expression of cytoplasmic beta-galactosidase, and is engineered with a plasmid for the synthesis of a periplasmic beta-lactamase. Sixty microliters (60 μl) of bacterial suspension of strain ML-35pYC of E. coli were added to 60 μl of a 15 mM solution of ONPG or 1.5 mM of CENTA in phosphate buffer. Subsequently, 120 μl of the test peptides were added to obtain a final concentration of 12.5 μg/ml. The kinetics of the reaction was evaluated by recording the value of absorbance at […] and 405 nm, for ONPG and CENTA respectively, every 10 min up to a maximum of 240 min.
By “fitting” the experimental points with the logistic 4-parameter curve, it was possible to determine the inflexion point, that is the point where the curve changes direction, relative to the 3 test peptides. No inflexion point was observed during the assay with CENTA (inflexion point higher than 500 min).

## CC[C@H](C)[C@@H]1NC(=O)[C@H](CCCCN)NC(=O)[C@H](C)NC(=O)[C@@H](NC(=O)[C@H](CCCCN)NC(=O)[C@@H](N)Cc2c[nH]cn2)CSSC[C@@H](C(=O)N[C@@H](C)C(=O)O)NC(=O)[C@H](Cc2ccc(O)cc2)NC(=O)[C@H](CCCCN)NC(=O)[C@H](C(C)C)NC(=O)[C@H](Cc2c[nH]cn2)NC(=O)[C@H](C(C)C)NC(=O)CNC(=O)[C@H](CCCNC(=N)N)NC(=O)[C@H](Cc2c[nH]c3ccccc23)NC(=O)[C@H](CCCCN)NC1=O (relative stereo) [Peptide P2041, HIS*LYS*CYS*ALA*LYS*ILE*LYS*TRP*ARG*GLY*VAL*HIS*VAL*LYS*TYR*CYS*ALA]
[1]
  LD90 Malassezia pachydermatis: 0.85 µM
[2]
  LD90 Candida albicans: 1.42 µM
[3]
  LD90 E. coli ATCC 25922: 0.83 µM
[3]; listed as 2041
  LD90 E. coli ATCC 25922: 1.57 μg/ml and 0.83 μM
[3]; ATCC 25922
  MBC E. coli ATCC 25922: 3.05 µg/mL (≈ 1.51 µM)
[4]; 2 h contact at 37° C., CFU count after 24 h
  LD90 P. aeruginosa ATCC 27853: 2.14 µM
[4]; ATCC 27853
  MBC P. aeruginosa ATCC 27853: 2.08 µg/mL (≈ 1.03 µM)
P. aeruginosa ATCC 27853; 12.5 μg/ml
  Antimicrobial activity (percentage of CFU growth inhibition) P. aeruginosa: 100%
P. aeruginosa ATCC 27853; 100 μg/ml
  Antimicrobial activity (percentage of CFU growth inhibition) P. aeruginosa: 100%
E. coli ML-35pYC; CENTA substrate (periplasmic beta-lactamase)
  Inflexion point CENTA: >500 min
E. coli ML-35pYC; ONPG substrate (cytoplasmic beta-galactosidase)
  Inflexion point ONPG: 16.08 min
